Data published in patent US9381204B2, “Pharmaceutical compositions containing phosphatidylserine and curcumin” (FIDIA FARMACEUTICI S.P.A., priority 2012, dated 2016).

Key:
[1] = test system: murine microglia BV-2 cells; assay: NO release by LPS-activated BV-2 microglia (Griess test); type: cell-based; conditions: 0.1 μg/ml LPS overnight; for effect on release of NO into the culture medium (FIG. 1): PS 10 and 30 μM, curcumin 2.5 and 5 μM
Protocol: PS (sodium salt), produced and purified according to EP1890706 (example 3), was resuspended in 2:1 chloroform/methanol, dried by evaporation and resuspended in PBS at the final concentration of 100 μM. 95% pure curcumin, prepared in DMSO at the final active ingredient concentration of 20 mM, was used for this experiment.
An in vitro glial activation model using the murine microglia BV-2 cell line was selected for this experiment:
50,000 cells/well were initially seeded in 96-well plates and cultured in DMEM containing 10% FCS, glutamine and antibiotics at 37° C. If activated with LPS (lipopolysaccharide, an endotoxin of Gram-negative bacterial, normally used as pro-inflammatory stimulus both in vitro and in vivo), these cells release NO into the culture medium; the experiment therefore involved stimulating them with 0.1 μg/ml LPS overnight in the presence or absence of PS (10 and 30 μM) or curcumin (2.5 and 5 μM) at different concentrations.
Finally, to evaluate the synergy between the two active constituents, the PS/curcumin combination was tested in the presence of LPS 0.1 μg/ml (as described above):
10 μM PS+2.5 μM curcumin, and
The final NO content in the medium was measured with the Griess test: briefly, aliquots of medium were mixed with equal volumes of Griess reagent (0.1% N(1-naphthyl)ethylenediamine dihydrochloride, 1% sulphanylamide and 0.4M HCl). After 15 minutes' reaction, the absorbance was measured at 570 nm.

[2] = test system: microglia BV-2 cells; assay: IL-1β release from LPS-stimulated BV-2 cells (ELISA); type: cell-based, murine; conditions: administered individually, 0.1 μg/ml LPS 16 hours; for inhibition of IL-1β release (FIG. 4): 1 μM or 5 μM; for inhibition of IL-1β release at the higher concentration (FIG. 4): 5 μM
Protocol: The experiment was conducted in two steps, and was designed to evaluate the effect on in vitro release of IL-1β from microglia BV-2 cells stimulated with LPS after administration of PS and curcumin. IL-1β is a cytokine strongly involved in the inflammatory processes underlying both osteoarticular disorders and neurodegeneration.
Murine microglial BV-2 cells were stimulated as described in Example 3 (0.1 μg/ml LPS for 16 hours) and then treated with PS and curcumin at the concentration of 1 μM or 5 μM. The IL-1β levels were determined by ELISA assay. The control (CTRL) was represented by cells stimulated with LPS but not treated.
At the second stage of the experiment the effects of the combination of the two substances were evaluated on the same parameter according to the same protocol.

[3] = test system: neural progenitor cells (NPCs); assay: Neuronal differentiation (βIII tubulin) of NPCs exposed to medium of LPS-activated microglia; type: cell-based, mice; conditions: alone, 1 and 5 μM; NPCs with medium of LPS-activated microglia, 6 days
Protocol: Cultures of stem cells/neural progenitor cells (NPCs) obtained from the subventricular zone of adult mice were used. The NPCs were cultured under conditions of differentiation by mechanical dissociation of the neurospheres and seeding of the individual cells on plates coated with poly-ornithine and laminin in a culture medium only containing factor bFGF, according to state-of-the-art techniques.
The NPC cultures thus obtained were divided into aliquots, each of which was treated differently, as follows:
b) treatment a) and PS and curcumin administered separately at different concentrations;
c) treatment a) and PS/curcumin combined at different relative concentrations.
The control was represented by untreated NPC cells.
Neuronal differentiation was evaluated after 6 days, by immunocytochemical analysis with antibodies directed against the specific marker βIII tubulin, extrapolating the % concentration of protein present in the medium.

Compound | inhibition at 5 µM ([1]; Mus musculus, single treatment of 5 μM curcumin, read-out: inhibition of NO release into the culture medium) [%] | effect on release of NO into the culture medium (FIG. 1) [1] | inhibition of IL-1β release (FIG. 4) [2] | inhibition of IL-1β release at the higher concentration (FIG. 4) [2] | percentage of cells positive to βIII tubulin (FIG. 6) [3] | inhibition of NO release into the culture medium ([1]; single treatment of 10 μM PS) [%]
COc1cc(C=CC(=O)CC(=O)C=Cc2ccc(O)c(OC)c2)ccc1O [curcumin, 1,7-bis[4-hydroxy-3-methoxyphenyl]-1,6-heptadiene-3,5-dione] | < 20 | inhibit the release of NO into the medium in a dose-dependent manner | neither PS nor curcumin, administered individually, significantly inhibits the release of IL-1β | limited effect | did not differ significantly from that observed in the presence of LPS alone | –
phosphatidylserine [PS] | – | inhibit the release of NO into the medium in a dose-dependent manner | neither PS nor curcumin, administered individually, significantly inhibits the release of IL-1β | limited effect | did not differ significantly from that observed in the presence of LPS alone | ≤ 10
